Reference: the NIST ThermoML archive (doi:10.1021/je0600810)

How the values were obtained:
[1] = 101.33 kPa, Liquid; for viscosity: Capillary tube (Ostwald / Ubbelohde) method
[2] = φn = volume fraction of the nth substance listed; details: 101 kPa, Liquid

CO [methanol]
[1]
Details	mass density [kg/m3]	viscosity [mPa·s]
298.15 K	786.59	0.5446
308.15 K	777.28	0.4747
318.15 K	767.74	0.4185

CO [methanol] + O
[2]
Details	mass density, 298.15 K [kg/m3]	mass density, 308.15 K [kg/m3]	mass density, 318.15 K [kg/m3]	viscosity, 298.15 K [mPa·s]	viscosity, 308.15 K [mPa·s]	viscosity, 318.15 K [mPa·s]
φ1 = 0.01	982.97	979.73	976.04	1.084	0.8665	0.702
φ1 = 0.2	969.63	966.32	961.62	1.311	1.022	0.8075
φ1 = 0.3	956.2	951.6	946.26	1.471	1.142	0.8957
